# Laboratory results from patent publication US20210214375A1 (LUNDBECK LA JOLLA RESEARCH CENTER, INC., priority 2017, published 2021).
# Where two headings read alike, the source gives them in different places.
# Legend:
# MAGL [1] = target: T1, MAGL (Homo sapiens, UniProt Q99685); test: In vitro competitive activity-based protein profiling (gel-based, FP-Rh or HT-01 probe); format: biochemical
# T1 construct: Proteomes (human prefrontal cortex or cell membrane fractions); from tissue
# T1 sequence (Q99685 1-303): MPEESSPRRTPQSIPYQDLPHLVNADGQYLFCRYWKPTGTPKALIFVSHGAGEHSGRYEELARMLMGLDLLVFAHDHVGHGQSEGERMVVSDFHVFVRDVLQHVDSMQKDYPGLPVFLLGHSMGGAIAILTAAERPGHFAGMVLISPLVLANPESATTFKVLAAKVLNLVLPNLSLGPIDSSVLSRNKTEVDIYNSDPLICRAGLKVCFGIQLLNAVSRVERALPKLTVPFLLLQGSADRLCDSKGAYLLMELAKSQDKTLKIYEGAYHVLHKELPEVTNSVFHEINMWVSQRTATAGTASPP
# Method in brief: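 Human prefrontal cortex or cell membrane proteomes (1.0 mg/mL protein) preincubated with varying inhibitor concentrations 30 min at 37° C. FP-Rh or HT-01 probe (1.0 μL of 50 μM stock) then added for 30 min at room temperature; reactions quenched with SDS loading buffer and resolved by SDS-PAGE.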
# MAGL [2] = target: T2, MAGL (Mus musculus, UniProt O35678); test: Mouse brain proteomes from inhibitor treated mice (oral gavage, brain proteomes analyzed 4 h after administration); format: in vivo, mouse (C57Bl/6J); conditions: brain proteome 4 h after administration, read-out: % Inh 5 mg/kg MGLL (Mouse)
# T2 construct: from tissue; host or cells: brain of wild-type C57Bl/6J mice
# T2 sequence (O35678 1-303): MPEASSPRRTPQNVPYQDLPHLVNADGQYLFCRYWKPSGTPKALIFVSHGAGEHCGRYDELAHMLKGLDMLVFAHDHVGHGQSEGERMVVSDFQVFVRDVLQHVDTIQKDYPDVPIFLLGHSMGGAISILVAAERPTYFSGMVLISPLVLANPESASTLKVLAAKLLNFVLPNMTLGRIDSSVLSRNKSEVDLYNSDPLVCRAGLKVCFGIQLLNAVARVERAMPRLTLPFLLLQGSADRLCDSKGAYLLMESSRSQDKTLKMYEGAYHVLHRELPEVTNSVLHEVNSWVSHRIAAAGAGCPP
# Protocol: Compounds are tested to assess their MAGL and serine hydrolase activity using the following in vitro and in vivo assays.
# Preparation of Mouse Brain Proteomes from Inhibitor Treated Mice.
# Inhibitors were administered to wild-type C57Bl/6J by oral gavage in a vehicle of polyethylene glycol. Each animal was sacrificed 4 h following administration and brain proteomes were prepared and analyzed according to previously established methods (See Niphakis, M. J., et al. (2011) ACS Chem. Neurosci. and Long, J. Z., et al. Nat. Chem. Biol. 5:37-44).
# [3] = PC3 proteome, read-out: IC50 MGLL PC3 (Human)
# [4] = PFC (prefrontal cortex) proteome
SMILES,IC50 (MAGL [1]; [3]) [µM],inhibition at 5 mg/kg (MAGL [2]) [%],"% Inh MGLL PFC (Human, μM) (MAGL [1]; [4])","IC50 (MAGL [1]; PFC (prefrontal cortex) proteome, read-out: IC50 MGLL PFC (Human)) [µM]"
"CN(Cc1ccc(C(F)(F)F)cc1C1(C(=O)O)CCCC1)C1(C)CCN(C(=O)OC(C(F)(F)F)C(F)(F)F)CC1 [Example 133, 1-(2-{[(1-{[(1,1,1,3,3,3-Hexafluoropropan-2-yl)oxy]carbonyl}-4-methylpiperidin-4-yl)(methyl)amino]methyl}-5-(trifluoromethyl)phenyl)cyclopentane-1-carboxylic acid]",< 0.1,≥ 75,### (### is ≥ 75%),
"O=C(OC(C(F)(F)F)C(F)(F)F)N1CCC2(CCCN2Cc2cc(Cl)cc(C3(C(=O)O)CCCC3)c2)CC1 [Example 134, 1-{3-Chloro-5-[(8-{[(1,1,1,3,3,3-hexafluoropropan-2-yl)oxy]carbonyl}-1,8-diazaspiro[4.5]decan-1-yl)methyl]phenyl} cyclopentane-1-carboxylic acid]",< 0.1,≥ 75,### (### is ≥ 75%),
CN(Cc1cc(N2CCOC(C)(C(=O)O)C2)cc(C(F)(F)F)c1)C1(C)CCN(C(=O)OC(C(F)(F)F)C(F)(F)F)CC1 (centres unmarked) [Example 139],< 0.1,≤ 25,,< 0.1
CN(Cc1ccccc1C1(C(=O)O)CCCC1)C1(C)CCN(C(=O)OC(C(F)(F)F)C(F)(F)F)CC1 [Example 141],< 0.1,≥ 75,### (### is ≥ 75%),
"CN(Cc1ccc(Cl)cc1C1(C(=O)O)CCCC1)C1(C)CCN(C(=O)OC(C(F)(F)F)C(F)(F)F)CC1 [Example 142, 1-(5-Chloro-2-{[(1-{[(1,1,1,3,3,3-hexafluoropropan-2-yl)oxy]carbonyl}-4-methylpiperidin-4-yl)(methyl)amino]methyl}phenyl) cyclopentane-1-carboxylic acid]",< 0.1,≥ 75,### (### is ≥ 75%),
"CN(Cc1ccc(F)cc1C1(C(=O)O)CCCC1)C1(C)CCN(C(=O)OC(C(F)(F)F)C(F)(F)F)CC1 [Example 143, 1-(5-Fluoro-2-{[(1-{[(1,1,1,3,3,3-hexafluoropropan-2-yl)oxy]carbonyl}-4-methylpiperidin-4-yl)(methyl)amino]methyl}phenyl) cyclopentane-1-carboxylic acid]",< 0.1,≥ 75,### (### is ≥ 75%),
"CC(C)(C#Cc1c(F)cccc1CN1CCCC12CCN(C(=O)OC(C(F)(F)F)C(F)(F)F)CC2)C(=O)O [Example 147, 4-{2-Fluoro-6-[(8-{[(1,1,1,3,3,3-hexafluoropropan-2-yl)oxy]carbonyl}-1,8-diazaspiro[4.5]decan-1-yl)methyl]phenyl]-2,2-dimethylbut-3-ynoic acid]",< 0.1,≥ 75,### (### is ≥ 75%),
"O=C(O)C1CCN(c2c(Cl)cccc2CN2CCC3(CC2)CCN(C(=O)OC(C(F)(F)F)C(F)(F)F)C3)CC1 [Example 218, 1-(2-Chloro-6-((2-(((1,1,1,3,3,3-hexafluoropropan-2-yl)oxy)carbonyl)-2,8-diazaspiro[4.5]decan-8-yl)methyl)phenyl) piperidine-4-carboxylic acid]",< 0.1,≥ 75,,

# Second part, the compound after the results:
IC50 (MAGL [1]; [3]) [µM],inhibition at 5 mg/kg (MAGL [2]) [%],"% Inh MGLL PFC (Human, μM) (MAGL [1]; [4])","IC50 (MAGL [1]; PFC (prefrontal cortex) proteome, read-out: IC50 MGLL PFC (Human)) [µM]",SMILES
< 0.1,≤ 25,,,"O=C(O)CN1CC2CC1CN2c1cc(C(F)(F)F)ccc1CN1CC2(CCN(C(=O)OC(C(F)(F)F)C(F)(F)F)CC2)C1 (centres unmarked) [Example 127, 2-(5-{2-[(7-{[(1,1,1,3,3,3-Hexafluoropropan-2-yl)oxy]carbonyl}-2,7-diazaspiro[3.5]nonan-2-yl)methyl]-5-(trifluoromethyl)phenyl}-2,5-diazabicyclo[2.2.1]heptan-2-yl)acetic acid]"
< 0.1,≤ 25,,,"O=C(O)CN1CC2CC1CN2c1cc(CN2CCCC23CCN(C(=O)OC(C(F)(F)F)C(F)(F)F)CC3)cc(C(F)(F)F)c1 (centres unmarked) [Example 128, 2-(5-{3-[(8-{[(1,1,1,3,3,3-Hexafluoropropan-2-yl)oxy]carbonyl}-1,8-diazaspiro[4.5]decan-1-yl)methyl]-5-(trifluoromethyl)phenyl}-2,5-diazabicyclo[2.2.1]heptan-2-yl)acetic acid]"
< 0.1,≤ 25,,,"CC1(C(=O)O)CN(c2cc(C(F)(F)F)ccc2CN2CC3(CCN(C(=O)OC(C(F)(F)F)C(F)(F)F)CC3)C2)CCO1 (centres unmarked) [Example 130, 4-(2-((7-(((1,1,1,3,3,3-Hexafluoropropan-2-yl)oxy)carbonyl)-2,7-diazaspiro[3.5]nonan-2-yl)methyl)-5-(trifluoromethyl)phenyl)-2-methylmoipholine-2-carboxylic acid]"
< 0.1,≥ 75,### (### is ≥ 75%),,"CN(Cc1ccc(C(F)(F)F)cc1CN1CCC(C(=O)O)CC1)C1(C)CCN(C(=O)OC(C(F)(F)F)C(F)(F)F)CC1 [Example 137, 1-(2-(((1-(((1,1,1,3,3,3-Hexafluoropropan-2-yl)oxy)carbonyl)-4-methylpiperidin-4-yl)(methyl)amino)methyl)-5-(trifluoromethyl)benzyl)piperidine-4-carboxylic acid]"
< 0.1,≤ 25,,,"O=C(O)CN1CCC2(CCN(c3cc(C(F)(F)F)ccc3CN3CCCC34CCN(C(=O)OC(C(F)(F)F)C(F)(F)F)CC4)CC2)C1 [Example 153, 2-(8-(2-((8-(((1,1,1,3,3,3-Hexafluoropropan-2-yl)oxy)carbonyl)-1,8-diazaspiro[4.5]decan-1-yl)methyl)-5-(trifluoromethyl)phenyl)-2,8-diazaspiro[4.5]decan-2-yl)acetic acid]"
< 0.1,≤ 25,,,"O=C(O)CN1CCC2(CC1)CCN(c1cc(C(F)(F)F)ccc1CN1CCCC13CCN(C(=O)OC(C(F)(F)F)C(F)(F)F)CC3)C2 [Example 154, 2-(2-(2-((8-(((1,1,1,3,3,3-Hexafluoropropan-2-yl)oxy)carbonyl)-1,8-diazaspiro[4.5]decan-1-yl)methyl)-5-(trifluoromethvl)phenyl)-2,8-diazaspiro[4.5]decan-8-yl)acetic acid]"
< 0.1,≤ 25,,,O=C(O)CN1CC2CN(c3cc(C(F)(F)F)ccc3CN3CCCC34CCN(C(=O)OC(C(F)(F)F)C(F)(F)F)CC4)CC2C1 (centres unmarked) [Example 155]
< 0.1,≤ 25,,,"O=C(O)CN1CCC2(CC1)CN(c1cc(C(F)(F)F)ccc1CN1CCCC13CCN(C(=O)OC(C(F)(F)F)C(F)(F)F)CC3)C2 [Example 156, 2-(2-(2-((8-(((1,1,1,3,3,3-Hexafluoropropan-2-yl)oxy)carbonyl)-1,8-diazaspiro[4.5]decan-1-yl)methyl)-5-(trifluoromethyl)phenyl)-2,7-diazaspiro[3.5]nonan-7-yl)acetic acid]"
< 0.1,≤ 25,,,"O=C(O)CN1CC2(CCN(c3cc(C(F)(F)F)ccc3CN3CCCC34CCN(C(=O)OC(C(F)(F)F)C(F)(F)F)CC4)CC2)C1 [Example 157, 2-(7-(2-((8-(((1,1,1,3,3,3-Hexafluoropropan-2-yl)oxy)carbonyl)-1,8-diazaspiro[4.5]decan-1-yl)methyl)-5-(trifluoromethyl)phenyl)-2,7-diazaspiro[3.5]nonan-2-yl)acetic acid]"
< 0.1,≤ 25,,,"O=C(O)CN1CC2(CCN(c3cc(CN4CCCC45CCN(C(=O)OC(C(F)(F)F)C(F)(F)F)CC5)cc(C(F)(F)F)c3)CC2)C1 [Example 158, 2-(7-(3-((8-(((1,1,1,3,3,3-Hexafluoropropan-2-yl)oxy)carbonyl)-1,8-diazaspiro[4.5]decan-1-yl)methyl)-5-(trifluoromethyl)phenyl)-2,7-diazaspiro[3.5]nonan-2-yl)acetic acid]"
